The text below walks through data of DBAASP.

Molecules are shown by their SMILES. In brackets after ≈: the same amount, converted by molar mass.

Some test systems named below: Pseudomonas aeruginosa; Staphylococcus aureus; Bacillus subtilis; Botrytis cinerea; Saccharomyces cerevisiae; Trichosporon beigelii; Escherichia coli; Salmonella typhimurium; Proteus vulgaris; Fusarium verticillioides; Shigella sp.; Nocardia asteroides; Bacillus cereus; Klebsiella pneumoniae; Candida glabrata 08A802.
Experiment in all cases: ≥ marks a high value that may be exact or a test limit, other limits are often not marked, values filed in µg/mL are converted to µM
The test system of test [1] is Pseudomonas aeruginosa PAO1.
Test [2] concerns Bacillus subtilis subsp. spizizenii.
Test [3] has as its system Staphylococcus aureus ATCC 29213.
The test system of test [4] is Klebsiella pneumoniae ATCC 700603.
Test [5] relates to Enterococcus faecalis ATCC 29212.
Test [6] has as its system Staphylococcus aureus WKZ-2.
The subject of test [7] is Staphylococcus aureus ATCC 6538P.
In test [8] the test system is Escherichia coli ATCC 25922.
In test [9] the test system is Candida albicans KCTC 7270.
The subject of test [10] is Listeria monocytogenes KCTC 3710.
The test system of test [11] is Staphylococcus epidermidis.
Test [12] deals with Aspergillus fumigatus KCTC 6145.
The subject of test [13] is Escherichia coli O157:H7 ATCC 43895.
Test [14] concerns Aspergillus flavus KCTC 9471.
Test [15] relates to Staphylococcus aureus 08032706.
For test [16], the system named is Candida albicans 08022821.
Test [17] deals with Candida albicans 08030401.
Test [18] has as its system Candida albicans 08030809.
The test system of test [19] is Candida glabrata 09050201.
The test system of test [20] is Enterococcus faecium 1299.
Test [21] relates to Stenotrophomonas maltophilia.
Test [22] relates to Salmonella enterica subsp. enterica serovar Paratyphi A.
For test [23], the system named is Candida albicans 08022710.
Test [24] deals with Candida albicans 08030102.
Test [25] relates to Xanthomonas axonopodis pv. glycines.
Test [26] deals with Staphylococcus aureus ATCC 25923.

By MIC is commonly meant the lowest concentration that inhibits growth of the organism. Higher therefore signals weaker potency. As for `CC[C@H](C)[C@H](N)C(=O)N[C@@H](CCCCN)C(=O)N[C@@H](Cc1ccc(O)cc1)C(=O)N[C@@H](CC(C)C)C(=O)N[C@@H](CC(C)C)C(=O)N[C@H](C(=O)N[C@@H](CCCCN)C(=O)N[C@@H](CC(C)C)C(=O)N[C@@H](CCC(N)=O)C(=O)NCC(=O)N[C@@H](C)C(=O)N[C@@H](CO)C(=O)N[C@@H](CCC(N)=O)C(=O)N[C@@H](CCCCN)C(=O)N[C@H](C(=O)N[C@H](C(=O)N[C@H](C(=O)N[C@@H](CC(C)C)C(=O)N[C@@H](CCSC)C(=O)N[C@@H](CC(C)C)C(=O)N[C@@H](CCCN=C(N)N)C(=O)N[C@@H](CCCN=C(N)N)C(=O)N[C@@H](CC(N)=O)C(=O)O)[C@@H](C)O)[C@@H](C)CC)[C@@H](C)O)C(C)C` [IKYLLVKLQGASQKTITLMLRRN], the MIC was 50.6 µM (≈ 136 µg/mL) in test [1]; at least 50.6 µM in test [2]; 3.16 µM (≈ 8.5 µg/mL) in test [3]; 50.6 µM (≈ 136 µg/mL) in test [4]; 25.3 µM (≈ 68 µg/mL) in test [5]; 3.16 µM (≈ 8.5 µg/mL) in test [6]. The MIC in test [7] worked out at 6.32 µM (≈ 17 µg/mL); in test [8], 12.6 µM (≈ 34 µg/mL).
Regarding `CC[C@H](C)[C@H](NC(=O)[C@H](CCCCN)NC(=O)[C@H](CO)NC(=O)[C@H](Cc1ccccc1)NC(=O)[C@H](CC(C)C)NC(=O)[C@H](CCCCN)NC(=O)[C@H](CCC(=O)O)NC(=O)[C@H](CC(C)C)NC(=O)[C@H](CCCN=C(N)N)NC(=O)[C@H](CCCCN)NC(=O)[C@H](CO)NC(=O)[C@@H](NC(=O)[C@H](CCCCN)NC(=O)[C@H](CCCCN)NC(=O)[C@H](C)N)C(C)C)C(=O)N[C@@H](CCC(N)=O)C(=O)N[C@@H](CC(N)=O)C(=O)N[C@@H](CC(=O)O)C(=O)N[C@@H](CCCCN)C(N)=O` [AKKVSKRLEKLFSKIQNDK], the MIC in the test on Pseudomonas aeruginosa is 12.5 µM (≈ 28.2 µg/mL); in test [9], 25 µM (≈ 56.5 µg/mL); against Staphylococcus aureus, over 12.5 µM; against Bacillus subtilis it was 3.13 µM (≈ 7.07 µg/mL); in [10], 12.5 µM (≈ 28.2 µg/mL); in test [11] it was 12.5 µM (≈ 28.2 µg/mL). Moreover, the MIC in test [12] was at least 50 µM; against Botrytis cinerea, at least 50 µM; with Saccharomyces cerevisiae, 25 µM (≈ 56.5 µg/mL); with Trichosporon beigelii, 12.5 µM (≈ 28.2 µg/mL); with Escherichia coli it was 6.25 µM (≈ 14.1 µg/mL); in the test with Salmonella typhimurium, 12.5 µM (≈ 28.2 µg/mL). The MIC was 12.5 µM (≈ 28.2 µg/mL) against Proteus vulgaris, 6.25 µM (≈ 14.1 µg/mL) in test [13], at least 50 µM in the test with Fusarium verticillioides and at least 50 µM in test [14].
Turning to `CC[C@H](C)[C@H](NC(=O)[C@H](CO)NC(=O)[C@H](CO)NC(=O)CNC(=O)CNC(=O)CNC(=O)[C@H](C)NC(=O)[C@H](Cc1ccccc1)NC(=O)[C@H](Cc1ccccc1)NC(=O)[C@H](CCCCN)NC(=O)[C@H](CCCCN)NC(=O)[C@H](CC(C)C)NC(=O)[C@H](CCCN=C(N)N)NC(=O)[C@H](CCCN=C(N)N)NC(=O)[C@H](CCSC)NC(=O)[C@H](Cc1ccccc1)NC(=O)[C@H](CCCCN)NC(=O)[C@H](CCCN=C(N)N)NC(=O)[C@H](Cc1ccccc1)NC(=O)CNC(=O)[C@H](CC(N)=O)NC(=O)[C@H](CCCN=C(N)N)NC(=O)[C@@H](N)CCCCN)C(=O)N[C@@H](C)C(=O)N[C@@H](Cc1cnc[nH]1)C(=O)N[C@H](C(=O)N[C@@H](CCCCN)C(=O)N[C@@H](CC(C)C)C(=O)N[C@@H](Cc1cnc[nH]1)C(=O)O)[C@@H](C)CC` [KRNGFRKFMRRLKKFFAGGGSSIAHIKLH], the MIC in [15] is 22.1 µM (≈ 75 µg/mL); in the test with Shigella sp., 0.691 µM (≈ 2.34 µg/mL); in the test with Nocardia asteroides, 11.1 µM (≈ 37.5 µg/mL); with Bacillus cereus, 2.77 µM (≈ 9.38 µg/mL); against Klebsiella pneumoniae it was 22.1 µM (≈ 75 µg/mL); in [16], 11.1 µM (≈ 37.5 µg/mL). Moreover, the MIC in test [17] was determined as 11.1 µM (≈ 37.5 µg/mL); in [18], 11.1 µM (≈ 37.5 µg/mL); in test [19], 22.1 µM (≈ 75 µg/mL); in test [11], 22.1 µM (≈ 75 µg/mL); in [20], 5.53 µM (≈ 18.8 µg/mL); in [21], 2.77 µM (≈ 9.38 µg/mL). Moreover, the MIC was determined as 22.1 µM (≈ 75 µg/mL) with Escherichia coli; 22.1 µM (≈ 75 µg/mL) in test [22]; 11.1 µM (≈ 37.5 µg/mL) with Candida glabrata 08A802; 11.1 µM (≈ 37.5 µg/mL) in test [23]; 5.53 µM (≈ 18.8 µg/mL) in test [24]; 11.1 µM (≈ 37.5 µg/mL) in [8].
For `CC[C@H](C)[C@H](NC(=O)[C@@H](NC(=O)[C@H](CO)NC(=O)[C@H](Cc1c[nH]c2ccccc12)NC(=O)[C@H](CC(C)C)NC(=O)CN)[C@@H](C)O)C(=O)N[C@@H](CCCCN)C(=O)N[C@@H](CC(N)=O)C(=O)N[C@H](C(=O)N[C@@H](C)C(=O)N[C@@H](C)C(=O)N[C@@H](C)C(=O)N[C@@H](C)C(=O)NCC(=O)N[C@@H](CCCCN)C(=O)N[C@@H](C)C(=O)N[C@@H](C)C(=O)N[C@@H](CC(C)C)C(=O)NCC(=O)N[C@@H](C)C(=O)N[C@@H](CC(C)C)C(N)=O)C(C)C` [GLWSTIKNVAAAAGKAALGAL], the MIC in test [25] worked out at 2 µM (≈ 3.96 µg/mL); in test [26] it was 32.3 µM (≈ 64 µg/mL); in test [8], 17.8 µM (≈ 35.3 µg/mL).
